Assay results published in US6509379B1, “Phenylacetic acid derivatives, process and intermediate products for their preparation, and their use as fungicides and pesticides” (BASF Aktiengesellschaft, priority 1995, dated 2003).

Experiments:
[1] = system: leaf rust of wheat (Puccinia recondite); assay: Efficacy against leaf rust of wheat (spray after infection of potted wheat seedlings); assay type: in vivo; details: wheat seedlings cv. Kanzler, sprayed 24 hours after dusting with spores, evaluated after 8 days, untreated 70
Description: (§1) The active ingredients are formulated as a 20% strength emulsion in a mixture of 70% by weight of cyclohexanone, 20% by weight of Nekanil® LN (Lutensol® AP6, wetting agent having emulsifier and dispersing action based on ethoxylated alkylphenols) and 10% by weight of Emulphor® EL (Emulan® EL, emulsifier based on ethoxylated fatty alcohols) and diluted with water to give the desired concentration. The experiments were evaluated visually.
Leaves of wheat seedlings cv. “Kanzler” in pots were dusted with leaf rust spores (Puccinia recondite). The pots were then placed for 24 hours in a chamber with high atmospheric humidity (90 to 95%) at from 20 to 22° C. During this time, the spores germinated, and the germ tubes penetrated the leaf tissue. The infected plants were subsequently sprayed to runoff point with aqueous spray mixtures comprising 80% of active ingredient of Table 1 and 20% of emulsifier in the dry matter. After the spray coating had dried on, the test plants were placed in a greenhouse at from 20 to 22° C. and a relative atmospheric humidity of 65 to 70%. After 8 days, the extent of rust development on the leaves was determined.

[2] = system: powdery mildew of wheat (Erysiphe graminis var. tritici); assay: Efficacy against powdery mildew of wheat (protective spray on potted wheat seedlings); assay type: in vivo; details: wheat seedlings cv. Frühgold, sprayed 24 hours before dusting with oidia, evaluated after 7 days, untreated 70
Description: as §1
Leaves of wheat seedlings cv. “Frühgold” in pots were sprayed with aqueous spray mixture comprising 80% of active ingredient of Table 1 and 20% of emulsifier in the dry matter and, 24 hours after the spray coating had dried on, dusted with oidia (spores) of powdery mildew of wheat (Erysiphe graminis var. tritici). The test plants were subsequently placed in a greenhouse at from 20 to 22° C. and a relative atmospheric humidity of 75 to 80%. After 7 days, the extent of mildew development was determined.

| Compound | % infection of the leaves after application of an aqueous preparation comprising . . . ppm of active ingredient ([1]; 63 ppm) | % infection of the leaves after application of an aqueous preparation comprising 250 ppm of active ingredient [2] | melting point | % infection of the leaves after application of an aqueous preparation comprising . . . ppm of active ingredient ([1]; 16 ppm) |
| --- | --- | --- | --- | --- |
| CC=C(C(=O)OC)c1ccccc1CON=C(C)C(=NOC)c1ccc(N(C)C(=O)C(C)(C)C)cc1 [I.44] | 5% |  |  |  |
| CO/N=C(/C(C)=N/OCc1ccccc1/C(=N\OC)C(=O)OC)c1ccc(N(C)C(=O)C(C)(C)C)cc1 [I.12] | 15% | 5% | 111 to 113 °C |  |
| C#CCON=C(C(C)=NOCc1ccccc1C(=COC)C(=O)OC)c1ccc(C(C)=NOC)cc1 [I.57] | 15% | 0% |  |  |
| CON=Cc1ccc(C(=NOC)C(C)=NOCc2ccccc2C(=NOC)C(=O)OC)cc1 [I.53] |  | 15% |  |  |
| CC=C(C(=O)OC)c1ccccc1CON=C(C)C(=NOC)c1ccc(N(CCC)C(=O)CC)cc1 [I.23] |  | 15% |  |  |
| CCCCN(C(=O)C(C)(C)C)c1ccc(C(=NOC)C(C)=NOCc2ccccc2C(=NOC)C(=O)NC)cc1 [I.27] |  | 5% |  | 3% |
| CC=C(C(=O)OC)c1ccccc1CON=C(C)C(=NOC)c1ccc(C=NOC)cc1 [I.58] | 0% | 0% |  |  |
| CCN(C(=O)C(C)(C)C)c1ccc(C(=NOC)C(C)=NOCc2ccccc2C(=NOC)C(=O)NC)cc1 [I.26] |  | 15% |  |  |
| CCCN(C(=O)C(C)(C)C)c1ccc(C(=NOC)C(C)=NOCc2ccccc2C(=NOC)C(=O)NC)cc1 [I.32] |  | 15% |  | 0% |
| CCON=C(C)c1ccc(C(=NOC)C(C)=NOCc2ccccc2C(=NOC)C(=O)NC)cc1 [I.55] |  | 15% |  | 0% |
| CCC(=O)Nc1ccc(C(=NOC)C(C)=NOCc2ccccc2C(=COC)C(=O)OC)cc1 [I.16] |  | 5% |  |  |
| CNC(=O)/C(=N/OC)c1ccccc1CO/N=C(C)/C(=N/OC)c1ccc(N(C)C(=O)C(C)(C)C)cc1 [I.10] |  |  | 168 to 170 °C |  |
| CCC(=O)N(C)c1ccc(C(=NOC)C(C)=NOCc2ccccc2C(=NOC)C(=O)NC)cc1 [I.5] | 0% | 5% |  |  |
| CC=C(C(=O)OC)c1ccccc1CON=C(C)C(=NOC)c1ccc(NC(=O)CC)cc1 [I.20] |  | 15% |  |  |
| CCC(=O)N(CC)c1ccc(C(=NOC)C(C)=NOCc2ccccc2C(=COC)C(=O)OC)cc1 [I.18] |  | 5% |  |  |
| CNC(=O)C(=NOC)c1ccccc1CON=C(C)C(=NOC)c1ccc(C=NOC)cc1 [I.54] |  | 5% |  | 0% |
| CO/N=C(\C)c1ccc(C(=N\OC)/C(C)=N/OCc2ccccc2/C(=N\OC)C(=O)OC)cc1 [I.51] |  |  | 112 to 114 °C |  |
| CC=C(C(=O)OC)c1ccccc1CON=C(C)C(=NOC)c1ccc(N(CC)C(=O)CC)cc1 [I.22] |  | 15% |  |  |

| Compound | % infection of the leaves after application of an aqueous preparation comprising . . . ppm of active ingredient ([1]; 63 ppm) | % infection of the leaves after application of an aqueous preparation comprising 250 ppm of active ingredient [2] | melting point | % infection of the leaves after application of an aqueous preparation comprising . . . ppm of active ingredient ([1]; 16 ppm) |
| --- | --- | --- | --- | --- |
| CO/N=C(/C(C)=N/OCc1ccccc1/C(=N\OC)C(=O)OC)c1ccc(NC(=O)C(C)(C)C)cc1 [I.11] |  |  | 114 to 116 °C |  |
| CNC(=O)/C(=N/OC)c1ccccc1CO/N=C(C)/C(=N/OC)c1ccc(/C(C)=N/OC)cc1 [I.52] |  | 15% |  | 0% |
| CCN(C(C)=O)c1ccc(C(=NOC)C(C)=NOCc2ccccc2C(=NOC)C(=O)NC)cc1 [I.30] |  |  |  | 15% |
| CC=C(C(=O)OC)c1ccccc1CON=C(C)C(=NOC)c1ccc(NC(=O)C(C)(C)C)cc1 [I.43] | 5% | 15% |  |  |
| CC=C(C(=O)OC)c1ccccc1CON=C(C)C(=NOC)c1ccc(N(CC)C(=O)C(C)(C)C)cc1 [I.45] | 15% | 15% |  |  |
| COC=C(C(=O)OC)c1ccccc1CON=C(C)C(=NOC)c1ccc(C=NOC)cc1 [I.59] | 10% | 0% |  |  |
| COC=C(C(=O)OC)c1ccccc1CON=C(C)C(=NOC)c1ccc(NC(=O)C(C)(C)C)cc1 [I.13] | 15% | 0% |  | 5% |
| CC=C(C(=O)OC)c1ccccc1CON=C(C)C(=NOC)c1ccc(N(CC)C(C)=O)cc1 [I.41] | 15% | 15% |  |  |
| CC=C(C(=O)OC)c1ccccc1CON=C(C)C(=NOC)c1ccc(N(C)C(C)=O)cc1 [I.40] | 0% | 15% |  |  |
| CNC(=O)C(=NOC)c1ccccc1CON=C(C)C(=NOC)c1ccc(N(OC)C(=O)OC)cc1 [I.25] |  | 5% |  |  |
| C#CCON=C(C(C)=NOCc1ccccc1C(=COC)C(=O)OC)c1ccc(C(C)=NOCC)cc1 [I.56] | 15% |  |  |  |
| CCCN(C(=O)CC)c1ccc(C(=NOC)C(C)=NOCc2ccccc2C(=NOC)C(=O)NC)cc1 [I.15] |  | 5% |  |  |
| CNC(=O)C(=NOC)c1ccccc1CON=C(C)C(=NOC)c1ccc(N(C)C(C)=O)cc1 [I.29] |  |  |  | 5% |
| CCC(=O)N(C)c1ccc(C(=NOC)C(C)=NOCc2ccccc2C(=COC)C(=O)OC)cc1 [I.17] |  | 15% |  |  |
| CC=C(C(=O)OC)c1ccccc1CON=C(C)C(=NOC)c1ccc(N(C)C(=O)CC)cc1 [I.21] |  | 5% |  |  |
| CCCN(C(C)=O)c1ccc(C(=NOC)C(C)=NOCc2ccccc2C(=NOC)C(=O)NC)cc1 [I.31] |  | 15% |  | 0% |
| CCC(=O)N(CC)c1ccc(C(=NOC)C(C)=NOCc2ccccc2C(=NOC)C(=O)NC)cc1 [I.8] | 0% | 0% |  |  |
| CCCN(C(=O)CC)c1ccc(C(=NOC)C(C)=NOCc2ccccc2C(=COC)C(=O)OC)cc1 [I.19] |  | 5% |  |  |
